According to US20160296511A1, “LAQUINIMOD FOR REDUCING THALAMIC DAMAGE IN MULTIPLE SCLEROSIS” (Teva Pharmaceutical Industries, Ltd., priority 2012, published 2016):
Marks after values point to notes of the source that are not given here.

Tested on: subjects with RRMS
Experiment: ALLEGRO sub-study: WM, GM and thalamic volume analysis (3D T1-weighted MRI)
Assay type: in vivo, human
Conditions: for Grey matter fraction, % change, median (range) / Thalamic fraction, % change, LS mean (SE) / White matter fraction, % change, median (range): laquinimod 0.6 mg/day oral; for Grey matter fraction, treatment effect (Hodges-Lehmann median estimate for treatment difference) / Thalamic fraction, treatment effect (LS mean difference) / White matter fraction, treatment effect (Hodges-Lehmann median estimate for treatment difference): laquinimod vs placebo; for Treatment effect of laquinimod on thalamic fraction: patients with thalamic lesions at baseline
Experimental: WM, GM, and thalamic volumes were derived from 3D T1-weighted images at baseline and at months 12 and 24. Patients with baseline and at least one valid scheduled post-baseline MRI were included in the analysis. Patients with thalamic lesions at baseline and a valid post-baseline MRI were included in the thalamic lesion analysis. Longitudinal WM and GM volume changes were calculated as the percentage difference from baseline to months 12 and 24. A separate calculation was performed between months 12 and 24. […] The ANCOVA (SAS® PROC GLM) model used treatment group, baseline value of the outcome, number of GdE lesions at baseline and country/geographic region, as covariates. Additionally, analyses of percentage changes in WM volume were also adjusted for GM volume at baseline due to the imbalance that was found between treatment groups at baseline. The Hodges-Lehmann (HL) large sample median estimator associated with the ranked values analysis approach was used to construct two-sided 95% confidence limits for the difference in treatment effects. Percent thalamic volume changes from baseline to months 12 and 24 followed normal distribution and thus were analysed using a parametric MMRM (SAS® PROC MIXED) model corrected for baseline thalamic volume, number of baseline GdE lesions, country/geographic region, visit, treatment and visit by treatment interaction. The least square (LS) mean difference was used to estimate treatment effect. As noted for the % change in WM and GM volumes, percent thalamic volume change from month 12 to month 24 was analyzed using a separate analysis of covariance (ANCOVA) (SAS® PROC GLM) model, since these values […] from the MMRM model. The ANCOVA model used treatment group, baseline thalamic volume, number of baseline GdE lesions and country/geographic region, as covariates. GM at baseline was used as an additional covariate to account for between treatment group imbalance in this measure at baseline.

CCN(C(=O)c1c(O)c2c(Cl)cccc2n(C)c1=O)c1ccccc1 [Laquinimod]
Grey matter fraction, % change, median (range) (baseline to month 12): −0.3 (−19.4 to 22.4) %
Thalamic fraction, % change, LS mean (SE) (baseline to month 12): −0.6 (0.12) %
White matter fraction, % change, median (range) (baseline to month 12): 0.0 (−24.7 to 11.9) %
Grey matter fraction, treatment effect (Hodges-Lehmann median estimate for treatment difference) (baseline to month 12): 0.502* %
Thalamic fraction, treatment effect (LS mean difference) (baseline to month 12): 0.408^† %
White matter fraction, treatment effect (Hodges-Lehmann median estimate for treatment difference) (baseline to month 12): 0.394* %
Grey matter fraction, % change, median (range) (baseline to month 24): −0.9 (−17.4 to 21.2) %
Thalamic fraction, % change, LS mean (SE) (baseline to month 24): −1.3 (0.15) %
White matter fraction, % change, median (range) (baseline to month 24): −0.3 (−27.3 to 19.2) %
Grey matter fraction, treatment effect (Hodges-Lehmann median estimate for treatment difference) (baseline to month 24): 0.372* %
Thalamic fraction, treatment effect (LS mean difference) (baseline to month 24): 0.60^† %
White matter fraction, treatment effect (Hodges-Lehmann median estimate for treatment difference) (baseline to month 24): 0.327* %
Grey matter fraction, % change, median (range) (month 12 to month 24): −0.7 (−11.5 to 16.6) %
Thalamic fraction, % change, LS mean (SE) (month 12 to month 24): −0.7 (0.13) %
White matter fraction, % change, median (range) (month 12 to month 24): −0.2 (−15.3 to 15.0) %
Grey matter fraction, treatment effect (Hodges-Lehmann median estimate for treatment difference) (month 12 to month 24): −0.078* %
Thalamic fraction, treatment effect (LS mean difference) (month 12 to month 24): 0.233^† %
White matter fraction, treatment effect (Hodges-Lehmann median estimate for treatment difference) (month 12 to month 24): −0.013* %
Treatment effect of laquinimod on thalamic fraction (12 months (p=0.018)): statistically significant
Treatment effect of laquinimod on thalamic fraction (24 months (p<0.0001)): statistically significant
Treatment effect of laquinimod on thalamic fraction change vs placebo (patients without T2 thalamic lesions at baseline, month 12 or 24): not significantly different
